Reference: patent US12077503B2, “Substituted cyclic amides and their use as herbicides” (FMC CORPORATION, priority 2015, dated 2024)

Tests used:
Type in all cases: in vivo
Kochia (Kochia scoparia) = experiment: Test A postemergence; details: Bassia scoparia, post-emergence, 240 h, read-out: Plant response rating, Kochia; for pest or weed control at 125 g/ha: 125 g ai/ha, postemergence, visual injury after approximately 10 d, 0 to 100 scale (0 no effect, 100 complete control)
Outline: (§1)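 Preemergence directed soil spray on seeded pots, or postemergence application to plants 2–10 cm, one- to two-leaf. Solvent mixture non-phytotoxic, with surfactant. Scored ~10 d later, visually, 0–100 vs untreated.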

[1] = test system: giant foxtail (Setaria faberii); experiment: Test A postemergence; details: Setaria faberi, post-emergence, 240 h, read-out: Plant response rating, Foxtail, Giant; for pest or weed control at 125 g/ha: 125 g ai/ha, postemergence, visual injury after approximately 10 d, 0 to 100 scale (0 no effect, 100 complete control)
Outline: as §1

[2] = test system: ryegrass, Italian (Italian ryegrass, Lolium multiflorum); experiment: Test A postemergence; details: Lolium multiflorum, post-emergence, 240 h, read-out: Plant response rating, Ryegrass, Italian; for pest or weed control at 125 g/ha: 125 g ai/ha, postemergence, visual injury after approximately 10 d, 0 to 100 scale (0 no effect, 100 complete control)
Outline: as §1

[3] = test system: Galium (catchweed bedstraw, Galium aparine); experiment: Test A postemergence; details: Galium, post-emergence, 240 h, read-out: Plant response rating, Galium; for pest or weed control at 125 g/ha: 125 g ai/ha, postemergence, visual injury after approximately 10 d, 0 to 100 scale (0 no effect, 100 complete control)
Outline: as §1

[4] = test system: ragweed (common ragweed, Ambrosia elatior); experiment: Test A postemergence; details: Ambrosia artemisiifolia, post-emergence, 240 h, read-out: Plant response rating, Ragweed; for pest or weed control at 125 g/ha: 125 g ai/ha, postemergence, visual injury after approximately 10 d, 0 to 100 scale (0 no effect, 100 complete control)
Outline: as §1

[5] = test system: pigweed (Amaranthus retroflexus); experiment: Test A postemergence; details: Amaranthus retroflexus, post-emergence, 240 h, read-out: Plant response rating, Pigweed; for pest or weed control at 125 g/ha: 125 g ai/ha, postemergence, visual injury after approximately 10 d, 0 to 100 scale (0 no effect, 100 complete control)
Outline: as §1

[6] = test system: wheat (Triticum aestivum); experiment: Test A postemergence; details: Triticum aestivum, post-emergence, 240 h, read-out: Plant response rating, Wheat
Outline: as §1

corn (Zea mays) = experiment: Test A postemergence; details: Zea mays, post-emergence, 240 h; for Corn plant response rating (crop injury, 0 = no effect, 100 = complete kill) at 125 g/ha: 125 g ai/ha, postemergence, visual injury after approximately 10 d, 0 to 100 scale (0 no effect, 100 complete control)
Outline: as §1

[7] = test system: barnyardgrass (Echinochloa crus-galli); experiment: Test A postemergence; details: Echinochloa crus-galli, post-emergence, 240 h, read-out: Plant response rating, Barnyardgrass; for pest or weed control at 125 g/ha: 125 g ai/ha, postemergence, visual injury after approximately 10 d, 0 to 100 scale (0 no effect, 100 complete control)
Outline: as §1

[8] = test system: blackgrass (Alopecurus myosuroides); experiment: Test A postemergence; details: Alopecurus myosuroides, post-emergence, 240 h, read-out: Plant response rating, Blackgrass; for pest or weed control at 125 g/ha: 125 g ai/ha, postemergence, visual injury after approximately 10 d, 0 to 100 scale (0 no effect, 100 complete control)
Outline: as §1

[9] = test system: ducksalad (Heteranthera limosa); experiment: Test B flooded paddy test; details: Heteranthera limosa, Flood, 250 g ai/ha; scale of 0 to 100 where 0 is no effect and 100 is complete control; read-out: Ducksalad plant response rating
Outline: (§2)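 Flooding to 3 cm over soil accompanied treatment, which consisted of adding compound to the standing water around 2-leaf plants; depth was then maintained. Visual assessment versus controls followed at 13 to 15 d (scale 0–100, 0 meaning no effect).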

rice (Oryra sativa) = experiment: Test B flooded paddy test; details: Oryza sativa, Flood, 250 g ai/ha; scale of 0 to 100 where 0 is no effect and 100 is complete control; read-out: Rice plant response rating
Outline: as §2

[10] = test system: sedge, umbrella (small-flower umbrella sedge, Cyperus difformis); experiment: Test B flooded paddy test; details: Cyperus difformis, Flood, 250 g ai/ha; scale of 0 to 100 where 0 is no effect and 100 is complete control; read-out: Sedge, Umbrella plant response rating
Outline: as §2

[11] = test system: barnyardgrass (Echinochloa crus-galli); experiment: Test B flooded paddy test; details: Echinochloa crus-galli, Flood, 250 g ai/ha; scale of 0 to 100 where 0 is no effect and 100 is complete control; read-out: Barnyardgrass plant response rating
Outline: as §2

[12] = Postemergence, 31 g ai/ha, visual injury after approx. 10 d, 0 to 100 scale, 0 no effect, 100 complete control

Which pest or weed control at 125 g/ha (Kochia (Kochia scoparia)) does the source give for Cc1cc(F)cc([C@H]2CN(C)C(=O)[C@@H]2C(=O)Nc2cccc(F)c2C#N)c1 [Compound 800] here?
The pest or weed control at 125 g/ha was 0%.

And the pest or weed control at 31 g/ha (Kochia (Kochia scoparia); [12])?
Its pest or weed control at 31 g/ha is 0%.

What about the pest or weed control at 125 g/ha [1] of the same molecule?
Its pest or weed control at 125 g/ha is 80%.

And the pest or weed control at 31 g/ha [1, 12]?
The pest or weed control at 31 g/ha was 80%.

What about the pest or weed control at 125 g/ha [2] of the same molecule?
The pest or weed control at 125 g/ha was 20%.

What about the pest or weed control at 31 g/ha [2, 12] of the same molecule?
The pest or weed control at 31 g/ha was 0%.

And the pest or weed control at 125 g/ha [3]?
Its pest or weed control at 125 g/ha is 30%.

What about the pest or weed control at 31 g/ha [3, 12] of the same molecule?
The pest or weed control at 31 g/ha was 0%.

And the pest or weed control at 125 g/ha [4]?
The pest or weed control at 125 g/ha was 0%.

And the pest or weed control at 31 g/ha [4, 12]?
Its pest or weed control at 31 g/ha is 0%.

What about the pest or weed control at 125 g/ha [5] of the same molecule?
The pest or weed control at 125 g/ha was 40%.

And the pest or weed control at 31 g/ha [5, 12]?
Its pest or weed control at 31 g/ha is 20%.

And the plant injury at 31 g/ha [6, 12]?
The plant injury at 31 g/ha was 0%.

And the Corn plant response rating (crop injury, 0 = no effect, 100 = complete kill) at 125 g/ha (corn (Zea mays))?
The Corn plant response rating (crop injury, 0 = no effect, 100 = complete kill) at 125 g/ha was 20%.

And the Corn plant response rating (crop injury, 0 = no effect, 100 = complete kill) at 31 g/ha (corn (Zea mays); [12])?
The Corn plant response rating (crop injury, 0 = no effect, 100 = complete kill) at 31 g/ha was 0%.

And the pest or weed control at 125 g/ha [7]?
The pest or weed control at 125 g/ha was 80%.

And the pest or weed control at 31 g/ha [7, 12]?
The pest or weed control at 31 g/ha was 80%.

And the pest or weed control at 125 g/ha [8]?
The pest or weed control at 125 g/ha was 20%.

What about the pest or weed control at 31 g/ha [8, 12] of the same molecule?
Its pest or weed control at 31 g/ha is 0%.

What about the pest or weed control at 250 g/ha [9] of the same molecule?
The pest or weed control at 250 g/ha was 95%.

And the pest or weed control at 250 g/ha (rice (Oryra sativa))?
Its pest or weed control at 250 g/ha is 30%.

What about the pest or weed control at 250 g/ha [10] of the same molecule?
Its pest or weed control at 250 g/ha is 0%.

What about the pest or weed control at 250 g/ha [11] of the same molecule?
Its pest or weed control at 250 g/ha is 95%.

How did the pest or weed control at 125 g/ha (Kochia (Kochia scoparia)) turn out when O=C1NC[C@H](c2csc3ccccc23)[C@H]1C(=O)Nc1ccccc1F [Compound 750] was run?
Its pest or weed control at 125 g/ha is 0%.

What about the pest or weed control at 125 g/ha [1] of the same molecule?
The pest or weed control at 125 g/ha was 20%.

And the pest or weed control at 125 g/ha [2]?
The pest or weed control at 125 g/ha was 0%.

And the pest or weed control at 125 g/ha [3]?
Its pest or weed control at 125 g/ha is 0%.

And the pest or weed control at 125 g/ha [4]?
Its pest or weed control at 125 g/ha is 0%.

And the pest or weed control at 125 g/ha [5]?
Its pest or weed control at 125 g/ha is 0%.

And the plant injury at 125 g/ha ([6]; 125 g ai/ha, postemergence, visual injury after approximately 10 d, 0 to 100 scale (0 no effect, 100 complete control))?
The plant injury at 125 g/ha was 0%.

What about the Corn plant response rating (crop injury, 0 = no effect, 100 = complete kill) at 125 g/ha (corn (Zea mays)) of the same molecule?
The Corn plant response rating (crop injury, 0 = no effect, 100 = complete kill) at 125 g/ha was 0%.

And the pest or weed control at 125 g/ha [7]?
Its pest or weed control at 125 g/ha is 70%.

What about the pest or weed control at 125 g/ha [8] of the same molecule?
Its pest or weed control at 125 g/ha is 0%.

And the pest or weed control at 250 g/ha [9]?
Its pest or weed control at 250 g/ha is 90%.

And the pest or weed control at 250 g/ha (rice (Oryra sativa))?
Its pest or weed control at 250 g/ha is 0%.

What about the pest or weed control at 250 g/ha [10] of the same molecule?
The pest or weed control at 250 g/ha was 0%.

And the pest or weed control at 250 g/ha [11]?
The pest or weed control at 250 g/ha was 0%.
